This is an account of results in ChEMBL document CHEMBL5512605, “Targeted regulated cell death with small molecule compounds in colorectal cancer: Current perspectives of targeted therapy and molecular mechanisms” (Eur J Med Chem, 2024).

A word on the IC50: it is the concentration that gives 50% inhibition.

The test system of one assay is Caco-2. In words: Antiproliferative activity against human Caco-2 cells measured after 24 hrs by MTT assay. Type of assay: functional, cell-based. Particulars: Caco-2, 24 h. For orientation: Tetrazolium dyes change colour on reduction, which living cells bring about.
Assay [1] relates to HT-29. In words: Antiproliferative activity in human HT-29 cells incubated for 48 hrs by MTT assay. Type of assay: functional, cell-based. Particulars: HT-29, 48 h.
The subject of assay [2] is HCT-116. In words: Cytotoxicity against human HCT-116 cells measured after 48 hrs by MTT colorimetric assay. Type of assay: functional, cell-based. Particulars: HCT-116, 48 h.
For assay [3], the system named is SW480. In words: Antiproliferative activity against human SW480 cells assessed as inhibition of cell growth measured after 48 hrs by CCK-8 method. The conditions noted are these: SW480, 48 h. Type of assay: functional, cell-based.
Assay [4] relates to SW-620. In words: Antiproliferative activity against human SW620 cells assessed as inhibition of cell growth measured after 48 hrs by CCK-8 method. Type of assay: functional, cell-based. Particulars: SW-620, 48 h.
Assay [5] relates to HT-29. In words: Antiproliferative activity against human HT-29 cells assessed as inhibition of cell growth measured after 48 hrs by CCK-8 method. Type of assay: functional, cell-based. Particulars: HT-29, 48 h.
For assay [6], the system named is HCT-116. Put plainly: Antiproliferative activity against human HCT-116 cells assessed as inhibition of cell growth measured after 48 hrs by CCK-8 method. Type of assay: functional, cell-based. Particulars: HCT-116, 48 h.
Another assay has as its system DLD-1. Put plainly: Antiproliferative activity against human DLD-1 cells assessed as inhibition of cell growth measured after 48 hrs by CCK-8 method. Type of assay: functional, cell-based. The conditions noted are these: DLD-1, 48 h.
Assay [7] concerns HCT-116. Put plainly: Cytotoxicity against human HCT-116 cells. The conditions noted are these: Homo sapiens, HCT-116. Type of assay: functional, cell-based.
Assay [8] concerns SW-620. In words: Cytotoxicity against human SW620 cells. Particulars: Homo sapiens, SW-620. Type of assay: functional, cell-based.
For assay [9], the system named is HCT-116. Put plainly: Antiproliferative activity against human HCT-116 cells assessed as inhibition of cell growth measured upto 72 hrs by CCK-8 method. Type of assay: functional, cell-based. The conditions noted are these: HCT-116, 72 h.
Assay [10] has as its system SW-620. Put plainly: Antiproliferative activity against human SW620 cells. Type of assay: functional, cell-based.
For another assay, the system named is COLO 320. In words: Antiproliferative activity in human COLO 320 cells incubated for 24 hrs by MTT assay. Type of assay: functional.
The subject of assay [11] is HCT-116. In words: Cytotoxicity against human HCT-116 cells measured after 24 hrs by MTT assay. Type of assay: functional, cell-based. Particulars: HCT-116, 24 h.
The subject of assay [12] is HT-29. Put plainly: Cytotoxicity against human HT-29 cells measured after 24 hrs by MTT assay. Type of assay: functional, cell-based. Particulars: HT-29, 24 h.
Assay [13] deals with HCT-116. Put plainly: Antiproliferative activity against human HCT-116 cells incubated for 48 hrs by MTT assay. Type of assay: functional, cell-based. The conditions noted are these: HCT-116, 48 h.
In assay [14] the test system is HT-29. Put plainly: Antiproliferative activity against human HT-29 cells incubated for 48 hrs by MTT assay. Type of assay: functional, cell-based. The conditions noted are these: HT-29, 48 h.
Assay [15] has as its system HCT-116. In words: Antiproliferative activity against human HCT-116 cells measured upto 72 hrs by CCK-8 method. Type of assay: functional.
Assay [16] deals with SW480. Put plainly: Antiproliferative activity against human SW480 cells measured upto 72 hrs by CCK-8 method. Type of assay: functional.
The next assay has as its system LoVo. Put plainly: Antiproliferative activity against human LoVo cells measured upto 72 hrs by CCK-8 method. Type of assay: functional.
Assay [17] deals with HT-29. In words: Induction of cell cycle arrest in human HT-29 cells measured after 24 to 48 hrs by PI staining based flow cytometry analysis. Type of assay: functional. For orientation: A flow cytometer gives signals particle by particle.
Assay [18] concerns HCT-116. In words: Cytotoxicity against human HCT-116 cells assessed as inhibition of cell growth incubated for 24 hrs by MTT assay. Type of assay: functional.
Another assay concerns SW837. In words: Antiproliferative activity against human SW837 cells. Type of assay: functional.
The test system of assay [19] is HCT-116. Put plainly: Antiproliferative activity against human HCT-116 cells assessed as inhibition of cell growth. Type of assay: functional, cell-based.
The test system of assay [20] is SW-620. In words: Antiproliferative activity against human SW620 cells assessed as inhibition of cell growth. Type of assay: functional, cell-based.
Assay [21] has as its system SW480. In words: Antiproliferative activity against human SW480 cells. Type of assay: functional, cell-based. The conditions noted are these: Homo sapiens, SW480.
For assay [22], the system named is HCT-116. Put plainly: Antiproliferative activity against human HCT-116 cells. The conditions noted are these: Homo sapiens, HCT-116. Type of assay: functional, cell-based.

As for `C[S+]([O-])CCCCN=C=S` (stereo not drawn) [SULFORAPHANE], the IC50 in the assay on Caco-2 amounted to 55.3 µM. Take `C=CCCCOc1cc(O)c2c(c1)OC(c1ccc(O)cc1)CC2=O` (stereo not drawn): half-maximal inhibition in the assay on HT-29 [1] (IC50) was put at 23.4 µM. `CC(=O)Oc1ccccc1C(=O)Nc1ncc([N+](=O)[O-])s1` [NITAZOXANIDE] displayed an IC50 in the assay on HCT-116 [2] of 11.2 µM. As to `CCc1ccc2c3[nH]c4ccccc4c3cc[n+]2c1`, the IC50 with SW480 [3] came out at 15.3 µM; with SW-620 [4] it was 10.5 µM; in the assay with HT-29 [5], 9.58 µM; in the assay on HCT-116 [6] it was 8.15 µM; in the assay on DLD-1, 10.8 µM. Consider `C=CC(=O)Nc1ccccc1Nc1nc(Nc2ccc(CN3CCC(C(=O)NO)CC3)cc2)ncc1Cl`, for which the IC50 in the assay with HCT-116 [7] came to 0.134 µM; in the assay with SW-620 [8] it was 0.309 µM. Turning to `CC(=O)Oc1ccccc1C(=O)O` [ASPIRIN], the IC50 with HCT-116 [9] was determined as 8000 µM. Consider `CC(/C=C/C(=O)NO)=C\[C@@H](C)C(=O)c1ccc(N(C)C)cc1` [TRICHOSTATIN], for which the IC50 with SW-620 [10] worked out at 2.45 µM.

Molecule `O=c1c(O)c(-c2ccc(O)c(O)c2)oc2cc(O)cc(O)c12` [QUERCETIN] registered an IC in the assay with COLO 320 of 50 µM.

For `C[C@@H]1CC[C@@]2(OC1)O[C@H]1C[C@H]3[C@]4(C)CC=C5C[C@@H](O[C@@H]6O[C@H](CO)[C@@H](O[C@@H]7O[C@@H](C)[C@H](O[C@@H]8O[C@@H](C)[C@H](O)[C@@H](O)[C@@H]8O)[C@@H](O)[C@H]7O)[C@H](O)[C@H]6O[C@@H]6O[C@@H](C)C(O)[C@@H](O)[C@H]6O)CC[C@]5(C)[C@H]4CC[C@]3(C)[C@H]1[C@@H]2C` (stereo partly drawn), the IC50 in the assay with HCT-116 [11] was 3.73 µM; in the assay on HT-29 [12] it was 1.89 µM.

Regarding `O=c1cc(-c2ccc(Oc3c(-c4ccc(O)cc4)oc4cc(O)cc(O)c4c3=O)cc2)oc2cc(O)cc(O)c12`, the 50% inhibitory concentration (IC50) with HCT-116 [13] is 32 µM; with HT-29 [14], 18.8 µM. On to `C[C@H]1[C@H](C)CC[C@]2(C(=O)O[C@@H]3O[C@H](CO[C@@H]4O[C@H](CO)[C@@H](O[C@@H]5O[C@@H](C)[C@H](O)[C@@H](O)[C@H]5O)[C@H](O)[C@H]4O)[C@@H](O)[C@H](O)[C@H]3O)CC[C@]3(C)C(=CC[C@@H]4[C@@]5(C)C[C@@H](O)[C@H](O)[C@@](C)(CO)[C@@H]5CC[C@]43C)[C@H]12`, for which the IC with HCT-116 [15], in the assay with SW480 [16] and in the assay with LoVo was 2 µM throughout. With `N#CC1=C(N)Oc2ccc3ccccc3c2C1c1ccc(F)cc1` (stereo not drawn), in the assay on HT-29 [17], 60 µM corresponded to half-maximal inhibition (IC50). In the case of `NCCCNCCCCNCCCN1C(=O)c2ccc3c4c(ccc(c24)C1=O)C(=O)N(CCCNCCCCNCCCN)C3=O`, the IC in the assay with HCT-116 [18] came to 1 µM. In the assay on SW837, `Cc1ncsc1-c1ccc([C@H](C)NC(=O)[C@@H]2C[C@@H](O)CN2C(=O)[C@@H](NC(=O)CCCCCC(=O)N2CCN(CC[C@H](CSc3ccccc3)Nc3ccc(S(=O)(=O)NC(=O)c4ccc(N5CCN(CC6=C(c7ccc(Cl)cc7)CCC(C)(C)C6)CC5)cc4)cc3S(=O)(=O)C(F)(F)F)CC2)C(C)(C)C)cc1` [DT-2216] yielded an IC of 1 µM. For `CC1=C(O)C(=O)C=C2C1=CC=C1[C@@]2(C)CC[C@@]2(C)[C@@H]3C[C@](C)(C(=O)O)CC[C@]3(C)CC[C@]12C` [CELASTROL], the IC50 in the assay with HCT-116 [19] and in the assay with SW-620 [20] was 0.29 µM throughout. In turn, `CC[C@@H](C(=O)[C@@H](C)[C@@H](O)[C@H](C)[C@@H]1O[C@@H]([C@@H](CC)C(=O)O)CC[C@@H]1C)[C@H]1O[C@]2(C=C[C@@H](O)[C@]3(CC[C@@](C)([C@H]4CC[C@](O)(CC)[C@H](C)O4)O3)O2)[C@H](C)C[C@@H]1C` [SALINOMYCIN] came in with an IC50 in the assay with Caco-2 of 15.7 µM. As for `COc1ccc(-c2cc(=O)c3c(O)c(OC)c(O)c(OC)c3o2)cc1` [NEVADENSIN], the IC50 in the assay on SW480 [21] and in the assay with HCT-116 [22] was 5 µM in each case.
